# Results: US11390604B2 (Hoffmann-La Roche Inc., priority 2019, dated 2022)
# Structures can show the parent of a compound that is named as a salt.
# Tested on: Acinetobacter baumannii ATCC 17961
# Experiment: Antimicrobial susceptibility testing: 90% growth inhibitory concentration (IC90) determination
# Assay type: cell-based
# Conditions: ATCC17961, Acinetobacter baumannii ATCC 17961, Iso-Sensitest broth, read-out: ATCC 17961 IC90
# Outline: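 Growth was followed kinetically by OD600 at 20-min intervals for 16 h at 35±2 °C, with ~5×10^5 CFU/ml in Iso-Sensitest broth. Compounds were tested as twofold dilutions (e.g. 50–0.097 μM final). The concentration giving 90% inhibition of log-phase growth was reported.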
row,SMILES,IC90
1,"Cn1c(-c2cn(CCF)nc2C(F)(F)F)cnc1C(=O)Nc1ccc(C(=O)N2CCN(C(=O)[C@H]3C[C@@H](N)C3)CC2)c(Cl)c1 [Example 74, N-[4-[4-(3-aminocyclobutanecarbonyl)piperazine-1-carbonyl]-3-chlorophenyl]-5-[1-(2-fluoroethyl)-3-(trifluoromethyl)pyrazol-4-yl]-1-methylimidazole-2-carboxamide;hydrochloride]",347 nM
2,"Cn1c(-c2cn(Cc3cccnc3)nc2C(F)(F)F)cnc1C(=O)Nc1ccc(C(=O)N2CCN(C(=O)C3(O)CCCNC3)CC2)c(Cl)c1 (centres unmarked) [Example 75, N-[3-chloro-4-[4-(3-hydroxypiperidine-3-carbonyl)piperazine-1-carbonyl]phenyl]-1-methyl-5-[1-(pyridin-3-ylmethyl)-3-(trifluoromethyl)pyrazol-4-yl]imidazole-2-carboxamide;hydrochloride]",542 nM
3,"C#CCn1cc(-c2cnc(C(=O)Nc3ccc(C(=O)N4CCN(C(=O)NCCNC)CC4)c(Cl)c3)n2C)c(C(F)(F)F)n1 [Example 76, 4-[2-chloro-4-[[1-methyl-5-[1-prop-2-ynyl-3-(trifluoromethyl)pyrazol-4-yl]imidazole-2-carbonyl]amino]benzoyl]-N-[2-(methylamino)ethyl]piperazine-1-carboxamide]",247 nM
4,"C#CCn1cc(-c2cnc(C(=O)Nc3ccc(C(=O)N4CCN(C(=O)N[C@H]5C[C@@H](N)C5)CC4)c(Cl)c3)n2C)c(C(F)(F)F)n1 [Example 78, N-(3-aminocyclobutyl)-4-[2-chloro-4-[[1-methyl-5-[1-prop-2-ynyl-3-(trifluoromethyl)pyrazol-4-yl]imidazole-2-carbonyl]amino]benzoyl]piperazine-1-carboxamide]",109 nM
5,"C#CCn1cc(-c2cnc(C(=O)Nc3ccc(C(=O)N4CCN(C(=O)N[C@H]5CCC[C@H]5N)CC4)c(Cl)c3)n2C)c(C(F)(F)F)n1 [Example 82, N-[(1S,2R)-2-aminocyclopentyl]-4-[2-chloro-4-[[1-methyl-5-[1-prop-2-ynyl-3-(trifluoromethyl)pyrazol-4-yl]imidazole-2-carbonyl]amino]benzoyl]piperazine-1-carboxamide]",160 nM
6,"C#CCn1cc(-c2cnc(C(=O)Nc3ccc(C(=O)N4CCN(C(=O)N[C@H]5[C@@H]6CNC[C@@H]65)CC4)c(Cl)c3)n2C)c(C(F)(F)F)n1 [Example 87, 4-[2-chloro-4-[[1-methyl-5-[1-prop-2-ynyl-3-(trifluoromethyl)pyrazol-4-yl]imidazole-2-carbonyl]amino]benzoyl]-N-[rac-(1R,5S)-3-azabicyclo[3.1.0]hexan-6-yl]piperazine-1-carboxamide]",216 nM
7,"C#CCn1cc(-c2cnc(C(=O)Nc3ccc(C(=O)N4CCN(C(=O)NC5CC6(CNC6)C5)CC4)c(Cl)c3)n2C)c(C(F)(F)F)n1 [Example 89, N-(2-azaspiro[3.3]heptan-6-yl)-4-[2-chloro-4-[[1-methyl-5-[1-prop-2-ynyl-3-(trifluoromethyl)pyrazol-4-yl]imidazole-2-carbonyl]amino]benzoyl]piperazine-1-carboxamide]",235 nM
8,"C#CCn1cc(-c2cnc(C(=O)Nc3ccc(C(=O)N4CCN(C(=O)[C@H]5[C@@H]6CNC[C@@H]65)CC4)c(Cl)c3)n2C)c(C(F)(F)F)n1 [Example 92, N-[3-chloro-4-[4-[rac-(1R,5S)-3-azabicyclo[3.1.0]hexane-6-carbonyl]piperazine-1-carbonyl]phenyl]-1-methyl-5-[1-prop-2-ynyl-3-(trifluoromethyl)pyrazol-4-yl]imidazole-2-carboxamide;hydrochloride]",103 nM
9,"C#CCn1cc(-c2cnc(C(=O)Nc3ccc(C(=O)N[C@H]4C[C@@H](N)C4)c(Cl)c3)n2C)c(C(F)(F)F)n1 [Example 93, N-[4-[(3-aminocyclobutyl)carbamoyl]-3-chlorophenyl]-1-methyl-5-[1-prop-2-ynyl-3-(trifluoromethyl)pyrazol-4-yl]imidazole-2-carboxamide;hydrochloride]",557 nM
10,"Cn1c(-c2cn(CC#N)nc2C(F)(F)F)cnc1C(=O)Nc1ccc(C(=O)N[C@H]2C[C@@H](N)C2)c(Cl)c1 [Example 94, N-[4-[(3-aminocyclobutyl)carbamoyl]-3-chlorophenyl]-5-[1-(cyanomethyl)-3-(trifluoromethyl)pyrazol-4-yl]-1-methylimidazole-2-carboxamide;2,2,2-trifluoroacetic acid]",176 nM
11,"C[C@@H](N)C(=O)N[C@H]1C[C@@H](NC(=O)c2ccc(NC(=O)c3ncc(-c4cn(CC#N)nc4C(F)(F)F)n3C)cc2Cl)C1 [Example 95, N-[4-[[3-[[(2R)-2-aminopropanoyl]amino]cyclobutyl]carbamoyl]-3-chlorophenyl]-5-[1-(cyanomethyl)-3-(trifluoromethyl)pyrazol-4-yl]-1-methylimidazole-2-carboxamide;2,2,2-trifluoroacetic acid]",422 nM
12,"Cn1c(-c2cn(CC#N)nc2C(F)(F)F)cnc1C(=O)Nc1ccc(C(=O)N[C@H]2C[C@@H](NC(=O)[C@H]3CC[C@@H](N)C3)C2)c(Cl)c1 [Example 96, N-[4-[[3-[[(1S,3R)-3-aminocyclopentanecarbonyl]amino]cyclobutyl]carbamoyl]-3-chlorophenyl]-5-[1-(cyanomethyl)-3-(trifluoromethyl)pyrazol-4-yl]-1-methylimidazole-2-carboxamide;2,2,2-trifluoroacetic acid]",498 nM
13,"Cn1c(-c2cn(C3CC3)nc2C(F)(F)F)cnc1C(=O)Nc1ccc(C(=O)N[C@H]2C[C@@H](N)C2)c(Cl)c1 [Example 97, N-[4-[(3-aminocyclobutyl)carbamoyl]-3-chlorophenyl]-5-[1-cyclopropyl-3-(trifluoromethyl)pyrazol-4-yl]-1-methylimidazole-2-carboxamide]",595 nM

# Other lines, results leading:
row,IC90,SMILES
1,257 nM,"C#CCn1cc(-c2cnc(C(=O)Nc3ccc(C(=O)N4CCN(C(=O)N5CCNCC5)CC4)c(Cl)c3)n2C)c(C(F)(F)F)n1 [Example 77, N-[3-chloro-4-[4-(piperazine-1-carbonyl)piperazine-1-carbonyl]phenyl]-1-methyl-5-[1-prop-2-ynyl-3-(trifluoromethyl)pyrazol-4-yl]imidazole-2-carboxamide]"
2,131 nM,"C#CCn1cc(-c2cnc(C(=O)Nc3ccc(C(=O)N4CCN(C(=O)N5CC[C@@H](N)C5)CC4)c(Cl)c3)n2C)c(C(F)(F)F)n1 [Example 79, N-[4-[4-[(3R)-3-aminopyrrolidine-1-carbonyl]piperazine-1-carbonyl]-3-chlorophenyl]-1-methyl-5-[1-prop-2-ynyl-3-(trifluoromethyl)pyrazol-4-yl]imidazole-2-carboxamide]"
3,227 nM,"C#CCn1cc(-c2cnc(C(=O)Nc3ccc(C(=O)N4CCN(C(=O)N5CC(C)(N)C5)CC4)c(Cl)c3)n2C)c(C(F)(F)F)n1 [Example 81, N-[4-[4-(3-amino-3-methylazetidine-1-carbonyl)piperazine-1-carbonyl]-3-chlorophenyl]-1-methyl-5-[1-prop-2-ynyl-3-(trifluoromethyl)pyrazol-4-yl]imidazole-2-carboxamide]"
4,288 nM,"C#CCn1cc(-c2cnc(C(=O)Nc3ccc(C(=O)N4CCN(C(=O)N[C@H]5CC[C@H](N)C5)CC4)c(Cl)c3)n2C)c(C(F)(F)F)n1 [Example 83, N-[(1S,3S)-3-aminocyclopentyl]-4-[2-chloro-4-[[1-methyl-5-[1-prop-2-ynyl-3-(trifluoromethyl)pyrazol-4-yl]imidazole-2-carbonyl]amino]benzoyl]piperazine-1-carboxamide]"
5,191 nM,"C#CCn1cc(-c2cnc(C(=O)Nc3ccc(C(=O)N4CCN(C(=O)N5CCC(N)CC5)CC4)c(Cl)c3)n2C)c(C(F)(F)F)n1 [Example 84, N-[4-[4-(4-aminopiperidine-1-carbonyl)piperazine-1-carbonyl]-3-chlorophenyl]-1-methyl-5-[1-prop-2-ynyl-3-(trifluoromethyl)pyrazol-4-yl]imidazole-2-carboxamide]"
6,170 nM,"C#CCn1cc(-c2cnc(C(=O)Nc3ccc(C(=O)N4CCN(C(=O)N5CCC[C@H](N)C5)CC4)c(Cl)c3)n2C)c(C(F)(F)F)n1 [Example 85, N-[4-[4-[(3S)-3-aminopiperidine-1-carbonyl]piperazine-1-carbonyl]-3-chlorophenyl]-1-methyl-5-[1-prop-2-ynyl-3-(trifluoromethyl)pyrazol-4-yl]imidazole-2-carboxamide]"
7,203 nM,"C#CCn1cc(-c2cnc(C(=O)Nc3ccc(C(=O)N4CCN(C(=O)N5CC6CNC6C5)CC4)c(Cl)c3)n2C)c(C(F)(F)F)n1 (centres unmarked) [Example 86, N-[3-chloro-4-[4-(3,6-diazabicyclo[3.2.0]heptane-3-carbonyl)piperazine-1-carbonyl]phenyl]-1-methyl-5-[1-prop-2-ynyl-3-(trifluoromethyl)pyrazol-4-yl]imidazole-2-carboxamide]"
8,170 nM,"C#CCn1cc(-c2cnc(C(=O)Nc3ccc(C(=O)N4CCN(C(=O)N5C[C@@H]6C[C@H]5CN6)CC4)c(Cl)c3)n2C)c(C(F)(F)F)n1 [Example 88, N-[3-chloro-4-[4-[(1S,4S)-2,5-diazabicyclo[2.2.1]heptane-2-carbonyl]piperazine-1-carbonyl]phenyl]-1-methyl-5-[1-prop-2-ynyl-3-(trifluoromethyl)pyrazol-4-yl]imidazole-2-carboxamide]"
9,218 nM,"C#CCn1cc(-c2cnc(C(=O)Nc3ccc(C(=O)N4CCN(C(=O)N5C[C@@H]6CNC[C@H]6C5)CC4)c(Cl)c3)n2C)c(C(F)(F)F)n1 [Example 90, N-[4-[4-[(3aS,6aS)-2,3,3a,4,6,6a-hexahydro-1H-pyrrolo[3,4-c]pyrrole-5-carbonyl]piperazine-1-carbonyl]-3-chlorophenyl]-1-methyl-5-[1-prop-2-ynyl-3-(trifluoromethyl)pyrazol-4-yl]imidazole-2-carboxamide]"
10,170 nM,"C#CCn1cc(-c2cnc(C(=O)Nc3ccc(C(=O)N4CCN(C(=O)N5CC6(CCN6)C5)CC4)c(Cl)c3)n2C)c(C(F)(F)F)n1 [Example 91, N-[3-chloro-4-[4-(1,6-diazaspiro[3.3]heptane-6-carbonyl)piperazine-1-carbonyl]phenyl]-1-methyl-5-[1-prop-2-ynyl-3-(trifluoromethyl)pyrazol-4-yl]imidazole-2-carboxamide]"
